Molecules are shown by their SMILES. Counter-ions that a name gives are not always drawn.

Chain of Tau binding to purified human brain membranes (P10636 with tags, fused parts or gaps): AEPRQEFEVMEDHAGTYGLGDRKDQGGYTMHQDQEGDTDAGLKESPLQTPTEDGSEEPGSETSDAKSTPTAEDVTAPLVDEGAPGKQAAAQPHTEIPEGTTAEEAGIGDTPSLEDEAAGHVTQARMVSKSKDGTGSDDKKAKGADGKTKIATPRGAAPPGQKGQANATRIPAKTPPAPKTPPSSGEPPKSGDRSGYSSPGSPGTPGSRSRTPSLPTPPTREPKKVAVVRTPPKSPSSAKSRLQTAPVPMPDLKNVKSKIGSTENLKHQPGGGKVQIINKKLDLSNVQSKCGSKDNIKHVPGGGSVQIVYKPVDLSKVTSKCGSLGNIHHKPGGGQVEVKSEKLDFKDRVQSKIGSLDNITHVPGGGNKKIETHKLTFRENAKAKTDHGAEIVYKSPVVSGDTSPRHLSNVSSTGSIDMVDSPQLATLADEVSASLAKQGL

The target of one assay is TDP-43 binding to purified human brain membranes (Homo sapiens, UniProt Q13148). As to the kind of experiment: Inhibition of TDP-43 binding to purified human brain cell membranes (ELISA). As to conditions: TDP43/Membrane Activity (IC-50), TDP-43, purified human brain membranes. How it is done: (§1) Purified human brain cell membranes were prepared by differential centrifugation as follows. Five grams of frozen human brain postmortem tissue (obtained from University of Kentucky Alzheimer's Disease Center Tissue Bank) was homogenized in 50 ml HEPES-Buffered sucrose (0.32M sucrose, 4 mM HEPES pH7.4, protease inhibitors) with a motor driven glass-teflon homogenizer. After removing nuclear and cell debris by centrifugation of homogenates at 1,000×g for 10 min at 4 degree Celsius, post-nuclear supernatant was centrifuged at 100,000×g for 30 minutes to yield the crude membrane pellet. Crude membrane pellet was re-suspended in 0.32M sucrose, then centrifuged again at 100,000×g for 30 minutes to yield washed membrane pellet. Membrane pellet was resuspended in sterile PBS (pH7.4), quickly frozen, and kept in aliquots at −80 degrees Celsius. This preparation contains human brain cell membranes. Protein concentration was measured with BCA protein assay kit (Pierce Cat. No. 23227). Purified brain membranes were diluted to 0.01 mg/ml in PBS (pH 7.4) and then added to a 96 well polystyrene ELISA plate (NUNC Cat. No. 449824; 100 μl per well). Plates were incubated Over Night (ON) at 4 degrees Celsius. Following the incubation, the plate was washed consecutively, by immersion, with de-ionized water and PBS (pH 7.4). The ELISA plate was then blocked with nonfat milk (2%, 200 μl per well) for 2 hours at Room Temperature (RT). Following blocking, the plate was washed with de-ionized water then PBS (pH 7.4). GBAPs were dissolved and diluted in PBS (pH 6.5, supplemented with 0.1% BSA) at desired concentrations, added to the ELISA plates coated with brain membranes (100 μl per well) and incubated for 2 hours at RT with gentle shaking. Following incubation, the plate was washed with de-ionized water and three times with PBS (pH 6.5) plus Tween. Bound GBAP was detected by a monoclonal antibody specific for that GBAP, followed by incubation with secondary antibody conjugated to horseradish peroxidase (HRP). Antibody was diluted in PBS (pH6.5 supplemented with 1% BSA). Following each incubation with antibody, the plate was washed with de-ionized water and three times with PBS (pH6.5) wash buffer containing 0.1% Tween. The peroxidase substrate chromogen, TMB (Dako Cat. No. S1599) was added (100 μl per well) to the ELISA plate and incubated at room temperature. After 5 minutes ELISA Stop Solution (hydrochloric acid 1N, sulfuric acid 3N) was added (100 μl per well) to stop the peroxidase catalyzed colorimetric reaction. The Optical Density of the samples was measured at 450 nm using an ELISA plate reader (BioTek Synergy H1). Following color development, the % inhibition compared to control was determined. IC-50s were calculated using GraphPad Prism software.
Chain of TDP-43 binding to purified human brain membranes (Q13148 whole entry): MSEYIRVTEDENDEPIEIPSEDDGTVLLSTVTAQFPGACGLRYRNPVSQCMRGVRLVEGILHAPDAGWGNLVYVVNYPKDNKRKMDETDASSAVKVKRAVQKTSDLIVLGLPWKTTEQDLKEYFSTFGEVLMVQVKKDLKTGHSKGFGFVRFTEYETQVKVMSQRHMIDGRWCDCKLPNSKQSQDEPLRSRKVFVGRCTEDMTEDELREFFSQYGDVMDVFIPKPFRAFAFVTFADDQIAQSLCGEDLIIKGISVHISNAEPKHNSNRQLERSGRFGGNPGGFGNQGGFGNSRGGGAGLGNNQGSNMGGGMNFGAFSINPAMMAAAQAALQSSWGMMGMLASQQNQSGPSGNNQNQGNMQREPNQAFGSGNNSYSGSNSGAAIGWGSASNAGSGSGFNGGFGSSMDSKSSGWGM
The assay was performed as described in Example 49, with the following modifications. Following to coating the plates with purified human brain cell membranes, plates were washed as described. The compounds were dissolved in DMSO at 10 mM final concentration and further diluted prior to assay. DMSO concentration in the screening well was up to 2%. Individual compounds were co-incubated with TDP-43 on plates coated with brain membranes. TDP43 from R&D System (Cat. No. AP-190) was quickly frozen and kept in aliquots at −80 degrees Celsius. TDP-43 dissolved in PBS (pH 6.5, supplemented with BSA, 0.1%) was added to the ELISA plate (100 μl per well) and incubated for 2 hours at RT with gentle shaking. Following the incubation, the plate was washed with de-ionized water and three times with PBS (pH 6.5) plus Tween. Bound TDP-43 was detected by Anti-TDP43 Monoclonal Antibody (R&D System Cat. No. MAB7778), followed by secondary anti-IgG antibody conjugated to HRP (R&D System, Cat. No. HAF007). Following to color development with TMB, as described in Example 49, the Optical Density of the samples was measured at 450 nm using an ELISA plate reader. […]
With `Clc1ccc2c(N/N=C/c3ccc(-n4cccn4)cc3)ccnc2c1` [Compound 3, (E)-4-((E)-(4-(1H-pyrazol-1-yl)benzylidene)hydrazono)-7-chloro-1,4-dihydroquinoline], the IC50 amounted to 6.57 µM.

For `Fc1ccc2c(N/N=C/c3ccc(-n4ccnc4)cc3)ccnc2c1` [Compound 5, (E)-4-(2-(4-(1H-imidazol-1-yl)benzylidene)hydrazinyl)-7-fluoroquinoline], the IC50 turned out to be 14.1 µM.

Turning to `C(=N\Nc1ccc2c3c(cccc13)CC2)/c1ccc(-n2ccnc2)cc1` [Compound 8, (E)-1-(4-((2-(1,2-dihydroacenaphthylen-5-yl)hydrazineylidene)methyl)phenyl)-1H-imidazole], the IC50 worked out at 25.2 µM.

With `Cc1ncn(-c2ccc(/C=N\Nc3ncnc4cc(Cl)ccc34)cn2)c1C` [Compound 15, 7-chloro-4-(2-((6-(4,5-dimethyl-1H-imidazol-1-yl)pyridin-3-yl)methylene)hydrazineyl)quinazoline hydrochloride], the IC50 was 3.01 µM.

With `C/C(=N\Nc1ncnc2cc(Cl)ccc12)c1ccc(-n2cc[n+](C)c2)nc1` [Compound 17, (E)-1-(5-(1-(2-(7-chloroquinazolin-4-yl)hydrazineylidene)ethyl)pyridin-2-yl)-3-methyl-1H-imidazol-3-ium iodide phosphoric acid salt], the IC50 is 22.5 µM.

Take `CC(=NNc1ccnc2cc(Cl)ccc12)c1ccc(-n2cnc(C)c2C)nc1` [Compound 22, 7-chloro-4-(2-(1-(6-(4,5-dimethyl-1H-imidazol-1-yl)pyridin-3-yl)ethylidene)hydrazineyl)quinoline]: the IC50 amounted to 12.2 µM.

Consider `Cc1ncn(-c2ccc(Nc3ncnc4cc(Cl)ccc34)cn2)c1C` [Compound 25, 7-chloro-N-(6-(4,5-dimethyl-1H-imidazol-1-yl)pyridin-3-yl)quinazolin-4-amine], for which the IC50 stood at 11.5 µM.

As for `C/C(=N\Nc1ncnc2cc(F)ccc12)c1ccc(-n2cc[n+](C)c2)nc1` [Compound 26, (E)-1-(5-(1-(2-(7-fluoroquinazolin-4-yl)hydrazineylidene)ethyl)pyridin-2-yl)-3-methyl-1H-imidazol-3-ium phosphoric acid salt], the IC50 turned out to be 27.2 µM.

Consider `Clc1ccc2c(Nc3ccc(-n4cncn4)nc3)ncnc2c1` [Compound 34, N-(6-(1H-1,2,4-triazol-1-yl)pyridin-3-yl)-7-chloroquinazolin-4-amine phosphoric acid salt], for which the IC50 is 3.67 µM.

Consider `Fc1cc(/C=N/Nc2ccnc3cc(Cl)ccc23)ccc1-n1ccnc1` [Compound 35, (E)-7-chloro-4-(2-(3-fluoro-4-(1H-imidazol-1-yl)benzylidene)hydrazineyl)quinoline hydrochloride], for which the IC50 worked out at 13.1 µM.

On to `CC(=NNc1ccnc2cc(Cl)ccc12)c1ccc(-n2ccnc2)cc1` [Compound 36, 4-(2-(1-(4-(1H-imidazol-1-yl)phenyl)ethylidene)hydrazineyl)-7-chloroquinoline phosphate], for which the IC50 came to 48.6 µM.

`Clc1ccc2c(Nc3ccc(-n4cncn4)nc3)ccnc2c1` [Compound 44, N-(6-(1H-1,2,4-triazol-1-yl)pyridin-3-yl)-7-chloroquinolin-4-amine]: the IC50 stood at 26.2 µM.

The same assay, now with this note: TDP-43, purified human brain membranes; read-out: TDP43/Membrane Activity (IC-50).
For `Cc1cc(-n2ccnc2)ccc1/C=N/Nc1ccnc2cc(Cl)ccc12` [Compound 1, (E)-4-((E)-(4-(1H-imidazol-1-yl)-2-methylbenzylidene)hydrazono)-7-chloro-1,4-dihydroquinoline], the IC50 amounted to 3.42 µM.

For `C/C(=N\Nc1ncnc2cc(Cl)ccc12)c1ccc(-n2cc(C)nc2C)nc1` [Compound 18, (E)-7-chloro-4-(2-(1-(6-(2,4-dimethyl-1H-imidazol-1-yl)pyridin-3-yl)ethylidene)hydrazineyl)quinazoline phosphoric acid salt], the IC50 turned out to be 9.28 µM.

Turning to `C/C(=N\Nc1ncnc2cc(F)ccc12)c1ccc(-n2cnc(C)c2C)nc1` [Compound 21, (E)-4-(2-(1-(6-(4,5-dimethyl-1H-imidazol-1-yl)pyridin-3-yl)ethylidene)hydrazineyl)-7-fluoroquinazoline], the IC50 is 7.12 µM.

In the case of `C/C(=N\Nc1ncnc2cc(Cl)ccc12)c1ccc(-n2cc(C)nc2C)nc1` [Compound 27, (E)-7-chloro-4-(2-(1-(6-(2,4-dimethyl-1H-imidazol-1-yl)pyridin-3-yl)ethylidene)hydrazineyl)quinazoline hydrochloride], the IC50 was 2.98 µM.

On to `CC(=NNc1ncnc2cc(Cl)ccc12)c1ccnc(-n2cnc(C)c2C)c1` [Compound 28, 7-chloro-4-(2-(1-(2-(4,5-dimethyl-1H-imidazol-1-yl)pyridin-4-yl)ethylidene)hydrazineyl)quinazoline], for which the IC50 was 8.93 µM.

The next assay addresses Tau binding to purified human brain membranes (Homo sapiens, UniProt P10636). As to the kind of experiment: Inhibition of Tau binding to purified human brain cell membranes (ELISA).
Conditions: not given
How it is done:
as §1
The assay was performed as described in Example 49, with the following modifications.
Following to coating the plates with purified human brain cell membranes, plates were washed as described. The compounds were dissolved in DMSO at 10 mM final concentration and further diluted prior to assay. DMSO concentration in the screening well was up to 2%. Individual compounds were co-incubated with Tau on plates coated with purified human brain membranes. Tau purchased from rPeptide (Cat. No. T1001) was dissolved in DMSO (Sigma Cat. No. D2650), quickly frozen and kept in aliquots at −80 degrees Celsius. Tau dissolved in PBS (pH 6.5, supplemented with BSA, 0.1%) was added to the ELISA plate (100 μl per well) and incubated for 2 hours at RT with gentle shaking. Following the incubation, the plate was washed with de-ionized water and three times with PBS (pH 6.5) plus Tween. Bound Tau was detected by anti-Tau Monoclonal Antibody D-8 (Santa Cruz Cat. No. sc-166060), followed by secondary anti-IgG antibody conjugated to HRP (R&D System, Cat. No. HAF007). Following to color development with TMB, as described in Example 49, the Optical Density of the samples was measured at 450 nm using an ELISA plate reader. […]
In the case of `Cc1ncn(-c2ccc(/C=N/Nc3ccnc4cc(Cl)ccc34)cc2)c1C` [Compound 2, (E)-7-chloro-4-((E)-(4-(4,5-dimethyl-1H-imidazol-1-yl)benzylidene)hydrazono)-1,4-dihydroquinoline], the IC50 came out at 11.4 µM.

Regarding `Clc1ccc2c(N/N=C/c3ccc(-n4cccn4)cc3)ccnc2c1` [Compound 3, (E)-4-((E)-(4-(1H-pyrazol-1-yl)benzylidene)hydrazono)-7-chloro-1,4-dihydroquinoline], the IC50 stood at 8.82 µM.

On to `Fc1ccc2c(N/N=C/c3ccc(-n4ccnc4)cc3)ccnc2c1` [Compound 5, (E)-4-(2-(4-(1H-imidazol-1-yl)benzylidene)hydrazinyl)-7-fluoroquinoline], for which the IC50 came out at 0.84 µM.

For `Fc1ccc2c(N/N=C/c3ccc(CN4CCOCC4)cc3)ccnc2c1` [Compound 6, (E)-4-(4-((2-(7-fluoroquinolin-4-yl)hydrazono)methyl)benzyl)morpholine], the IC50 was found to be 0.63 µM.

Turning to `CN1CCN(Cc2ccc(/C=N/Nc3ccnc4cc(Cl)ccc34)cc2)CC1` [Compound 7, (E)-7-chloro-4-(2-(4-((4-methylpiperazin-1-yl)methyl)benzylidene)hydrazinyl)quinolone], the IC50 came to 1.22 µM.

`COc1cc2nccc(NN=Cc3ccc(-n4ccnc4)c(C)c3)c2cc1OC` [Compound 11, 4-(2-(4-(1H-imidazol-1-yl)-3-methylbenzylidene)hydrazineyl)-6,7-dimethoxyquinoline hydrochloride]: the IC50 turned out to be 8.31 µM.

With `COc1ccc2c(NN=Cc3ccc(-n4ccnc4)c(C)c3)ccnc2c1` [Compound 12, 4-(2-(4-(1H-imidazol-1-yl)-3-methylbenzylidene)hydrazineyl)-7-methoxyquinoline], the IC50 came out at 29.9 µM.

With `CCN1CCN(c2ccc(Nc3ccnc4cc5ccccc5cc34)cc2)CC1` [Compound 39, N-(4-(4-ethylpiperazin-1-yl)phenyl)benzo[g]quinolin-4-amine], the IC50 amounted to 54.1 µM.

The assay is the same for the next values; noted with them: Tau, purified human brain membranes; read-out: Tau/Membrane Activity (IC-50).
For `Cc1cc(-n2ccnc2)ccc1/C=N/Nc1ccnc2cc(Cl)ccc12` [Compound 1, (E)-4-((E)-(4-(1H-imidazol-1-yl)-2-methylbenzylidene)hydrazono)-7-chloro-1,4-dihydroquinoline], the IC50 worked out at 0.49 µM.

The record behind these values is US20240398783A1, “Compounds and Pharmaceutical Compositions Comprising Inhibitors of Amyloid Peptide Interactions with Glycosaminoglycans, Methods of Treatment and Use Thereof” (Gismo Therapeutics, Inc., priority 2021, published 2024).
